Legend:
[1] = biological target: CDK2/CyclinE (Homo sapiens (Human), UniProt P24941); test: CDK2/cyclinE kinase assay, microfluidic kinase detection (Caliper, Nanosyn); format: biochemical; conditions: 12-point dose-response, ATP at Km (100 μM), enzyme 0.28 nM, incubation 1 hr; read-out: CDK2/Cyclin E
Protocol: (§1) Selected compounds disclosed herein were tested in CDK4/cyclinD1, CDK2/CycA and CDK2/cyclinE kinase assays by Nanosyn (Santa Clara, Calif.) to determine their inhibitory effect on these CDKs. The assays were performed using microfluidic kinase detection technology (Caliper Assay Platform). The compounds were tested in 12-point dose-response format in singlicate at Km for ATP. Phosphoacceptor substrate peptide concentration used was 1 μM for all assays and Staurosporine was used as the reference compound for all assays. Specifics of each assay are as described below:
CDK2/CyclinE: Enzyme concentration: 0.28 nM; ATP concentration: 100 μM; Incubation time: 1 hr.

[2] = biological target: CDK9/Cyclin T (Homo sapiens (Human), UniProt P50750); test: CDK9/Cyclin T kinase assay (Biological Table 3); format: biochemical
[3] = biological target: CDK4/CyclinD1 (Homo sapiens (Human), UniProt P11802); test: CDK4/cyclinD1 kinase assay, microfluidic kinase detection (Caliper, Nanosyn); format: biochemical; conditions: 12-point dose-response, ATP at Km (200 μM), enzyme 1 nM, incubation 10 hr; read-out: CDK4/Cyclin D1
Protocol: as §1
CDK4/CyclinD1: Enzyme concentration: 1 nM; ATP concentration: 200 μM; Incubation time: 10 hr.

[4] = tested on: Hs68 cells; test: Cell population by DNA content (<2N, G0-G1, S, G2-M) as measure of apoptotic cells; format: cell-based; conditions: at every dose administered (FIG. 4)
Description: FIG. 4 is a bar graph showing the population of cells with a DNA content less than 2N, cells in the G0-G1 phase, cells in the S phase, and cells in the G2-M phase as a way to measure the relative amount of apoptotic cells following administration of control and Compound 28. The population of apoptotic cells after exposure to Compound 28 was greater than 70% at every dose administered. The assay was done in a population of Hs68 cells. * is <2000 events. The Compound number and dose, measured in μM and nM, are shown on the x-axis and the cell population, measured in percent, is shown on the y-axis.

[5] = biological target: CDK6/Cyclin D3 (Homo sapiens (Human), UniProt Q00534); test: CDK6/Cyclin D3 kinase assay (Biological Table 3); format: biochemical
Protocol: [Worded in the source for another target; this target is reported under the same test.] as §1, with “assays.” for “assays. Specifics of each assay are as described below:”

[6] = biological target: CDK2/CyclinA (Homo sapiens (Human), UniProt P24941); test: CDK2/CycA kinase assay, microfluidic kinase detection (Caliper, Nanosyn); format: biochemical; conditions: 12-point dose-response, ATP at Km (50 μM), enzyme 0.2 nM, incubation 3 hr; read-out: CDK2/Cyclin A
Protocol: as §1
CDK2/CyclinA: Enzyme concentration: 0.2 nM; ATP concentration: 50 μM; Incubation time: 3 hr.

[7] = biological target: CDK5/p25 (Homo sapiens (Human), UniProt Q00535); test: CDK5/p25 kinase inhibition (Biological Table 2); format: biochemical
[8] = biological target: CDK2/CycE (Homo sapiens (Human), UniProt P24941); test: CDK2/CycE kinase inhibition (Biological Table 1); format: biochemical
[9] = biological target: CDK6/CycD3 (Homo sapiens (Human), UniProt Q00534); test: CDK6/CycD3 kinase inhibition (Biological Table 1); format: biochemical
[10] = biological target: CDK9/CycT (Homo sapiens (Human), UniProt P50750); test: CDK9/CycT kinase inhibition (Biological Table 2); format: biochemical
[11] = biological target: CDK2/CycA (Homo sapiens (Human), UniProt P24941); test: CDK2/CycA kinase inhibition (Biological Table 1); format: biochemical
[12] = biological target: CDK4/CycD (Homo sapiens (Human), UniProt P11802); test: CDK4/CycD kinase inhibition (Biological Table 1); format: biochemical
[13] = biological target: CDK5/p35 (Homo sapiens (Human), UniProt Q00535); test: CDK5/p35 kinase inhibition (Biological Table 1); format: biochemical
[14] = biological target: CDK7/CycH/MAT1 (Homo sapiens (Human), UniProt P50613); test: CDK7/CycH/MAT1 kinase inhibition (Biological Table 2); format: biochemical
Chain of CDK7/CycH/MAT1 (P50613 whole entry): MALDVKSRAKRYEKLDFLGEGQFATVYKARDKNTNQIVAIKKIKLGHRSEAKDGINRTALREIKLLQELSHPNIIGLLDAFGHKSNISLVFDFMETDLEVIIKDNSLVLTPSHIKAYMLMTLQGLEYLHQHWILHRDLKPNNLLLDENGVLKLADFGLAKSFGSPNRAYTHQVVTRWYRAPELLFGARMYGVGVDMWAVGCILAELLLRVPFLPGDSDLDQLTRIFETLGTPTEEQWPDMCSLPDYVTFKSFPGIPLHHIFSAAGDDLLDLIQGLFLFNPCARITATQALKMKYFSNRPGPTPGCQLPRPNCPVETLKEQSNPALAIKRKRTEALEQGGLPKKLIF
Chain of CDK7/CycH/MAT1 (P51946 whole entry partner): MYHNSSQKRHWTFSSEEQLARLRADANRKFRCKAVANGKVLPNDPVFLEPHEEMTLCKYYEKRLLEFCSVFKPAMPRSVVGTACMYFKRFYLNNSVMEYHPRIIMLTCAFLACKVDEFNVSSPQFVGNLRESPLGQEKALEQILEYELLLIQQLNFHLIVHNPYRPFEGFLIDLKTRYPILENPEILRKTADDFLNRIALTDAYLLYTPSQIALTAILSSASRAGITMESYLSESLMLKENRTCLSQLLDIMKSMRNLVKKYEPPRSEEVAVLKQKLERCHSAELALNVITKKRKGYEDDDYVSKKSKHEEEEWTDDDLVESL
Chain of CDK7/CycH/MAT1 (P51948 whole entry partner): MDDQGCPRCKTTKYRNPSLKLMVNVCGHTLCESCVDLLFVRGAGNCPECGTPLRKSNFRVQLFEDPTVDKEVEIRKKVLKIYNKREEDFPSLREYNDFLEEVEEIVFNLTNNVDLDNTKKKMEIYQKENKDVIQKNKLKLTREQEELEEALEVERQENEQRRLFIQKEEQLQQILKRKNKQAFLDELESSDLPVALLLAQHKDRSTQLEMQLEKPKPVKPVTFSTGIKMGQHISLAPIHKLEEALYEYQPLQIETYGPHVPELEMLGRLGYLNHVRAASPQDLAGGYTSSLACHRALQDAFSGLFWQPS

Chain of CDK5/p25 (Q00535 whole entry): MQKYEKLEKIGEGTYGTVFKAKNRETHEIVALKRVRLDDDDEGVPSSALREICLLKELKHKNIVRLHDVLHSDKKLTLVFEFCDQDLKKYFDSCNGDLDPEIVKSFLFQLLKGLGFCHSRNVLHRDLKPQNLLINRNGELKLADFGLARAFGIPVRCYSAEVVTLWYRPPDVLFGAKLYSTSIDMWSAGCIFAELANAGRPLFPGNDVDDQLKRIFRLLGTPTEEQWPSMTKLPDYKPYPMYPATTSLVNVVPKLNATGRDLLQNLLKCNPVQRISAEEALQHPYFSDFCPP
Chain of CDK5/p35 (Q00535 whole entry): as above
Chain of CDK5/p35 (Q15078 whole entry partner): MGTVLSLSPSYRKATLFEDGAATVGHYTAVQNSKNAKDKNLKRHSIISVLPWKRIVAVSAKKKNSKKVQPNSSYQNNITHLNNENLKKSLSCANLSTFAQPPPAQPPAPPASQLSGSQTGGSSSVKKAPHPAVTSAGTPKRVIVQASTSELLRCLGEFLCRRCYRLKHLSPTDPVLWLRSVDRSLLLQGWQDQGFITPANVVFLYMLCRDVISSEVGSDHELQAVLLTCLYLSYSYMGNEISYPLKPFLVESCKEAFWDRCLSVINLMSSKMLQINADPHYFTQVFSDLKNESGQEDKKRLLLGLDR
Chain of CDK9/CycT (P50750 whole entry): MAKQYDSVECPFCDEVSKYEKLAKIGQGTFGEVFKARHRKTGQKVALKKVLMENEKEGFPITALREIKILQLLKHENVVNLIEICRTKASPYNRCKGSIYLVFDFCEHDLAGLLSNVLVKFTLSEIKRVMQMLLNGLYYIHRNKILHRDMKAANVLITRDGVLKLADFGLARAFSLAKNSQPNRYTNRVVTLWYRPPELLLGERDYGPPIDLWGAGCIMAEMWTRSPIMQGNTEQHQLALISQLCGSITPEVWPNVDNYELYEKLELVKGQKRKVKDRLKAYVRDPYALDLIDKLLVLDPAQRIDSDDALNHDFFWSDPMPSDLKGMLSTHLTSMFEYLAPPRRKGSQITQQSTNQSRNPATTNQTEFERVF
Chain of CDK9/CycT (O60563 whole entry partner): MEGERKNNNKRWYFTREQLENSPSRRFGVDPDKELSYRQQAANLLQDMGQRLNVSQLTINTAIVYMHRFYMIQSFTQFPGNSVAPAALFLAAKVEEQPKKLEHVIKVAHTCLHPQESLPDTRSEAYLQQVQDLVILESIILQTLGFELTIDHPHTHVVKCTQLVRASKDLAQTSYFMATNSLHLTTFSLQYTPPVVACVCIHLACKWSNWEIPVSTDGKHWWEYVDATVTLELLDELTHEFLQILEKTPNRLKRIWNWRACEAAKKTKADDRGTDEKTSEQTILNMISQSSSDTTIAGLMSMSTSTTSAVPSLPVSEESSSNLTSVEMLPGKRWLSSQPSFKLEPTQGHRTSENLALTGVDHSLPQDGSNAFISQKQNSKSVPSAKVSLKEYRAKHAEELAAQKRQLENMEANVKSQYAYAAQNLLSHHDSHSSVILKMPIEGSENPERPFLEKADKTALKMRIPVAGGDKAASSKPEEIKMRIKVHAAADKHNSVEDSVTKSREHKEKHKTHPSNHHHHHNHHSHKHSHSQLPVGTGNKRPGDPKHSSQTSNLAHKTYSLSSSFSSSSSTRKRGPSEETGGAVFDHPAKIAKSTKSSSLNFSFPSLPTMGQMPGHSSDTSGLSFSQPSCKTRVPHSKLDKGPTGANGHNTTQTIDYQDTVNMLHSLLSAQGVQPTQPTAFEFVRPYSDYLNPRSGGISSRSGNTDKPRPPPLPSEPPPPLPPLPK
Chain of CDK4/CycD (P11802 whole entry): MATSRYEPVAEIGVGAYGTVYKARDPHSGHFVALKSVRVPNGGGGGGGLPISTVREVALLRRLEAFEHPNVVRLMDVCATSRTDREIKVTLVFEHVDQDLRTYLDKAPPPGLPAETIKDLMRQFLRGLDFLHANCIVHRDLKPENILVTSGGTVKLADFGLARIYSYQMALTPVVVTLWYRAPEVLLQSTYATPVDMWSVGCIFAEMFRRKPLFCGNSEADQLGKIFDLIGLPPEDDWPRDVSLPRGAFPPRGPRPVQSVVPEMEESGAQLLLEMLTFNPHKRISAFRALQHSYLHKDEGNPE
Chain of CDK4/CycD (P24385 whole entry partner): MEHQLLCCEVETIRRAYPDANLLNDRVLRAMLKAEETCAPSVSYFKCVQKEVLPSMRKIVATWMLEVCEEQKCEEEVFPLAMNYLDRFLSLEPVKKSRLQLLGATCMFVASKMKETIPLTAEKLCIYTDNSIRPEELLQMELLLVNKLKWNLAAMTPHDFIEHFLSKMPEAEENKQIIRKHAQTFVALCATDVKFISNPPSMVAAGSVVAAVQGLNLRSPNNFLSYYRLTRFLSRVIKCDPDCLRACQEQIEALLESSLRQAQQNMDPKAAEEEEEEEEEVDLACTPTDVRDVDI
Chain of CDK6/CycD3 (Q00534 whole entry): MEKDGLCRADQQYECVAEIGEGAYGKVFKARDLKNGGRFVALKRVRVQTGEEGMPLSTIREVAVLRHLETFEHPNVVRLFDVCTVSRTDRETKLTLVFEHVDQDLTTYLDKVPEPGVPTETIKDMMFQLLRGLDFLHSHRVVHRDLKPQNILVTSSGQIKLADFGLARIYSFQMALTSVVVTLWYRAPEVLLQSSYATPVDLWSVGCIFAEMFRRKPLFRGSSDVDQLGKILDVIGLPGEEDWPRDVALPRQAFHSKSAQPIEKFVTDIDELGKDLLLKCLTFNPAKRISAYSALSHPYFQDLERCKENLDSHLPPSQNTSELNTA
Chain of CDK6/CycD3 (P30281 whole entry partner): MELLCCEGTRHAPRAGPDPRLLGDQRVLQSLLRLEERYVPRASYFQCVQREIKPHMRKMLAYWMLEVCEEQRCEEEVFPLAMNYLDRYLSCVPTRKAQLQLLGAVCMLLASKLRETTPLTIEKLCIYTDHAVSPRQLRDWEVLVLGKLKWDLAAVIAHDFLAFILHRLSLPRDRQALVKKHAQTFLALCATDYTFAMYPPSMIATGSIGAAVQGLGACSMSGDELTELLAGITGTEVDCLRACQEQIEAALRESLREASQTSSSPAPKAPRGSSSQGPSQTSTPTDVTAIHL
Chain of CDK9/Cyclin T (P50750 whole entry): as the sequence (P50750 whole entry) above
Chain of CDK9/Cyclin T (O60563 whole entry partner): as the sequence (O60563 whole entry partner) above
Chain of CDK4/CyclinD1 (P11802 whole entry): as the sequence (P11802 whole entry) above
Chain of CDK4/CyclinD1 (P24385 whole entry partner): as the sequence (P24385 whole entry partner) above
Chain of CDK6/Cyclin D3 (Q00534 whole entry): as the sequence (Q00534 whole entry) above
Chain of CDK6/Cyclin D3 (P30281 whole entry partner): as the sequence (P30281 whole entry partner) above

Compound	IC50 [1]	IC50 [2]	IC50 [3]	population of apoptotic cells [4]	IC50 [5]	IC50 [6]	IC50 [7]	IC50 [8]	IC50 [9]	IC50 [10]	IC50 [11]	IC50 [12]	IC50 [13]	IC50 [14]
CN1CCN(c2cnc(Nc3ncc4cc5n(c4n3)C3(CCCCC3)CNC5=O)nc2)CC1 [Compound 28, 2′-((5-(4-Methylpiperazin-1-yl)pyrimidin-2-yl)amino)-7′,8′-dihydro-6′H-spiro[cyclohexane-1,9′-pyrazino[1′,2′:1,5]pyrrolo [2,3-d]pyrimidin]-6′-one]	> 100 µM	1 µM	0.02 µM	greater than 70%	0.06 µM	13.5 µM	–	–	–	–	–	–	–	–
CN1CCN(c2ccc(Nc3ncc4c(n3)N3C(CC4=O)C(=O)NCC3(C)C)nc2)CC1 (centres unmarked) [Compound 1, 10,10-dimethyl-2-((5-(4-methylpiperazin-1-yl)pyridin-2-yl)amino)-6,6a,9,10-tetrahydro-5H-pyrazino[1′,2′:1,6]pyrido[2,3-d]pyrimidine-5,7(8H)-dione]	–	–	–	–	–	–	> 100 µM	> 100 µM	30.6 µM	> 100 µM	> 100 µM	8.06 µM	> 100 µM	> 100 µM
CN1CCN(c2ccc(Nc3ncc4c(n3)N3C(=NCCC35CCCCC5)C=C4)nc2)CC1 [Compound 9, N-(5-(4-methylpiperazin-1-yl)pyridin-2-yl)-8′,9′-dihydrospiro[cyclohexane-1,10′-pyrido[1,6-a:2,3-d′]dipyrimidin]-2′-amine]	–	–	–	–	–	–	> 100 µM	> 100 µM	1.8 µM	> 100 µM	> 100 µM	2.6 µM	> 100 µM	> 100 µM
CN1CCN(c2ccc(Nc3ncc4c(n3)N3C(CC4=O)C(=O)NCC34CCCCC4)nc2)CC1 (centres unmarked) [Compound 3]	–	–	–	–	–	–	> 100 µM	> 100 µM	> 100 µM	> 100 µM	> 100 µM	> 100 µM	> 100 µM	> 100 µM
CCOC(=O)C1C(=O)c2cnc(Nc3ccc(N4CCN(C)CC4)cn3)nc2N2CCCCC12 (centres unmarked) [Compound 8, ethyl 2-((5-(4-methylpiperazin-1-yl)pyridin-2-yl)amino)-5-oxo-6,6a,7,8,9,10-hexahydro-5H-pyrimido[5,4-c]quinolizine-6-carboxylate]	–	–	–	–	–	–	> 100 µM	> 100 µM	3.5 µM	> 100 µM	> 100 µM	4.1 µM	> 100 µM	> 100 µM

From patent US10829490B2, “Substituted dihydropyrazino[1 ′,2′:1,5]pyrrolo[2,3-d]pyrimidine-based antiproliferative agents” (G1 Therapeutics, Inc., priority 2016, dated 2020)
